# Measured values taken from US10166218B2, “3-(1H-indol-2-yl)-1H-pyrazolo[3,4-C]pyridines and therapeutic uses thereof” (Samumed, LLC, priority 2015, dated 2019).
# Key:
# Format in all cases: cell-based
# [1] = tested on: Wnt activity (Sp5-Luc reporter, TCF/LEF binding sites) in SW480 colon carcinoma cells; assay: Screening assay for Wnt activity: Sp5-Luc reporter gene assay in stably transduced SW480 cells; conditions: Homo sapiens, overnight incubation
# Method in brief: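 SW480 cells stably transduced with an Sp5 promoter (eight TCF/LEF sites)–firefly luciferase lentiviral reporter, plated at 4,000 cells/well in 1% FBS medium with compounds (10-point 1:3 series from 10 μM, 0.1% DMSO) overnight at 37 °C. BrightGlo luminescence normalised to DMSO; EC50 by four-parameter fit, else % inhibition at 10 μM.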
# SW480 colon cancer cells = assay: Cell viability assay (CellTiter-Blue) in SW480 colon cancer cells; conditions: Homo sapiens, 96 h, four days, CellTiter-Blue
# Method in brief: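 Approximately 2×10^3 SW480 cells per well are seeded with compound (8 points, threefold steps, top 10 μM) and incubated four days at 37 °C. CellTiter-Blue is then added for about 3 h and fluorescence read. Non-linear regression gives EC50; for values beyond 10 μM, percent inhibition at that concentration is listed.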
# [2] = tested on: primary human fibroblasts derived from IPF patients (LL29 cells) treated with TGF-β1; α-smooth muscle actin (αSMA); assay: Inhibition of the fibrotic process: αSMA staining in TGF-β1 treated primary human fibroblasts from IPF patients (LL29 cells); conditions: Fibroblast, 96 h, TGF-β1 20 ng/mL, 4 days, % cells positive for αSMA
# Method in brief: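 Compound dilutions from 10 μM down to […] are dispensed, LL29 cells added in F12 with 1% FBS, and TGF-β1 (20 ng/mL) follows after 1 h. After 4 days, live-cell αSMA positivity is measured by immunofluorescence and normalized to TGF-β1-treated wells to derive EC50.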
# IL-6 (THP-1 cells) = assay: Inhibition of IL-6 in LPS-stimulated THP-1 human monocyte cells (HTRF); conditions: inhibition of IL-6 in LPS-stimulated THP-1 cells, HTRF, 10-point dose-response starting from 10 μM
# Method in brief: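 THP-1 cells, serum-reduced (1% FBS) for 24 h, were preincubated with compound (10-point 1:3 series from 10 μM, 0.1% DMSO) for 2 h, then stimulated with 500 ng/mL LPS for 22 h at 37° C. IL-6 was read by HTRF (665/620 nm ratio) and normalized to DMSO. EC50 from four-parameter fit; % inhibition at 10 μM given if EC50 >10 μM.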
SMILES,EC50 [1] [nM],EC50 (SW480 colon cancer cells) [nM],EC50 (IL-6 (THP-1 cells)) [nM],EC50 [2] [nM]
"CN(C)CCNc1cc(F)cc(-c2cccc3[nH]c(-c4n[nH]c5cnc(-c6cncc(NC(=O)C7CC7)c6)cc45)cc23)c1 [Compound 468, N-(5-(3-(4-(3-((2-(Dimethylamino)ethyl)amino)-5-fluorophenyl)-1H-indol-2-yl)-1H-pyrazolo[3,4-c]pyridin-5-yl)pyridin-3-yl)cyclopropanecarboxamide]",1310,1980,866,3510
"CS(=O)(=O)NCc1cc(F)cc(-c2cccc3[nH]c(-c4n[nH]c5cnc(-c6cncc(NC(=O)C7CCCCC7)c6)cc45)cc23)c1 [Compound 499, N-(5-(3-(4-(3-Fluoro-5-(methylsulfonamidomethyl)phenyl)-1H-indol-2-yl)-1H-pyrazolo[3,4-c]pyridin-5-yl)pyridin-3-yl)cyclohexanecarboxamide]",1760,4540,1780,4790
"CS(=O)(=O)NCc1cc(F)cc(-c2cccc3[nH]c(-c4n[nH]c5cnc(-c6cncc(CNCC7CCCC7)c6)cc45)cc23)c1 [Compound 501, N-(3-(2-(5-(5-(((Cyclopentylmethyl)amino)methyl)pyridin-3-yl)-1H-pyrazolo[3,4-c]pyridin-3-yl)-1H-indol-4-yl)-5-fluorobenzyl)methanesulfonamide]",1340,2250,1030,463

# These reach a lower EC50 [1]. Values come first.
EC50 [1] [nM],EC50 (SW480 colon cancer cells) [nM],EC50 (IL-6 (THP-1 cells)) [nM],SMILES,EC50 [2] [nM]
754,1520,954,"Cc1ncc(-c2cc3c(-c4cc5ccccc5[nH]4)n[nH]c3cn2)n1C [Compound 681, 5-(1,2-Dimethyl-1H-imidazol-5-yl)-3-(1H-indol-2-yl)-1H-pyrazolo[3,4-c]pyridine]",292
421,365,3990,"Fc1cccc(-c2cccc3[nH]c(-c4n[nH]c5cnc(-c6cncc(OCc7ccccc7)c6)cc45)cc23)c1 [Compound 546, 5-(5-(Benzyloxy)pyridin-3-yl)-3-(4-(3-fluorophenyl)-1H-indol-2-yl)-1H-pyrazolo[3,4-c]pyridine]",234
253,882,481,"CS(=O)(=O)NCc1cc(F)cc(-c2cccc3[nH]c(-c4n[nH]c5cnc(-c6cncc(CN7CCC(F)(F)C7)c6)cc45)cc23)c1 [Compound 502, N-(3-(2-(5-(5-((3,3-Difluoropyrrolidin-1-yl)methyl)pyridin-3-yl)-1H-pyrazolo[3,4-c]pyridin-3-yl)-1H-indol-4-yl)-5-fluorobenzyl)methanesulfonamide]",28
171,1430,353,"c1cnc2cc(-c3n[nH]c4cnc(-c5cncc(OC6CCCCC6)c5)cc34)[nH]c2c1 [Compound 1025, 5-(5-(Cyclohexyloxy)pyridin-3-yl)-3-(1H-pyrrolo[3,2-b]pyridin-2-yl)-1H-pyrazolo[3,4-c]pyridine]",584
157,688,526,"CC(C)Nc1cncc(-c2cc3c(-c4cc5c(-c6cc(F)cc(CNS(C)(=O)=O)c6)cccc5[nH]4)n[nH]c3cn2)c1 [Compound 488, N-(3-Fluoro-5-(2-(5-(5-(isopropylamino)pyridin-3-yl)-1H-pyrazolo[3,4-c]pyridin-3-yl)-1H-indol-4-yl)benzyl)methanesulfonamide]",182
